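Method: 48-hour compound exposure of cells in 96-well plates, five concentrations, linear interpolation of endpoints. At the GI50, growth is halved. At the TGI there is no net growth.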

Test systems include NCI-H23 lung; HT29 colon; IGROV1 ovarian; A549 NSCLC; RPMI-8226 leukemia; M14 melanoma; K-562 leukemia; SK-MEL-2 melanoma; HCT-15 colon; NCI-H226 lung.
Common to all, as to assay: NCI tumour cell line growth inhibition, 48 h

On to `CC(=O)OCC1OC(n2c(=O)[nH]c(=O)c3n[nH]nc32)C(OC(C)=O)C(OC(C)=O)C1OC(C)=O` (stereo not drawn), for which the TGI in the assay on NCI-H23 lung, in the assay on HT29 colon, with IGROV1 ovarian, in the assay with A549 NSCLC, in the assay on RPMI-8226 leukemia and in the assay on M14 melanoma was greater than 100 µM each time. For the same compound, the TGI with K-562 leukemia, in the assay with SK-MEL-2 melanoma and with HCT-15 colon was greater than 100 µM in each case.

`C=C(C(=O)OC)[C@@H]1CC2OC1C(=O)C(C)CCC/C(C)=C/CC[C@@]2(C)O` (stereo partly drawn): the GI50 in the assay with NCI-H23 lung was 14 µM; with HT29 colon it was 36.5 µM; in the assay on IGROV1 ovarian it was 11.3 µM; in the assay on A549 NSCLC it was 20.1 µM; with RPMI-8226 leukemia, 16.8 µM; in the assay with M14 melanoma, 15.8 µM. Besides, the results for the GI50 in the assay on K-562 leukemia, in the assay on SK-MEL-2 melanoma and with HCT-15 colon were 18.9 µM, 37.8 µM and 29.1 µM, respectively. The TGI was 27.9 µM in the assay with NCI-H23 lung; greater than 100 µM with HT29 colon; 25.4 µM in the assay on IGROV1 ovarian; 46 µM in the assay on A549 NSCLC; 61.2 µM with RPMI-8226 leukemia; 29.2 µM in the assay on M14 melanoma. The TGI with K-562 leukemia was 43.4 µM; with SK-MEL-2 melanoma, greater than 100 µM; with HCT-15 colon, greater than 100 µM.

For `O=c1cc[nH]cc1-c1c[nH]ccc1=O`, the TGI with NCI-H226 lung, with NCI-H23 lung, with HT29 colon, in the assay on IGROV1 ovarian, in the assay on A549 NSCLC and in the assay on RPMI-8226 leukemia was greater than 100 µM in each case. Besides, the TGI with M14 melanoma, in the assay with K-562 leukemia and in the assay with HCT-15 colon was greater than 100 µM throughout.

On to `CCOC(=O)c1sc2c(C(=O)OCC)n3cc(C)cc(C)c3c2c1O`, for which the TGI in the assay with NCI-H226 lung, in the assay with NCI-H23 lung, in the assay on HT29 colon, in the assay on IGROV1 ovarian, in the assay on A549 NSCLC and in the assay on M14 melanoma was greater than 100 µM throughout. Moreover, the TGI with K-562 leukemia and in the assay with SK-MEL-2 melanoma was greater than 100 µM throughout.

Turning to `CN(C)CCN1C(=O)c2cccc3c(/C=C/CN4C(=O)c5cccc6cccc(c56)C4=O)ccc(c23)C1=O`, the GI50 with NCI-H226 lung was 1.92 µM; in the assay on NCI-H23 lung, greater than 100 µM; in the assay on HT29 colon it was greater than 100 µM; in the assay with IGROV1 ovarian, greater than 100 µM; in the assay with A549 NSCLC, greater than 100 µM; in the assay on RPMI-8226 leukemia, greater than 100 µM. The GI50 with M14 melanoma, with SK-MEL-2 melanoma and with HCT-15 colon was greater than 100 µM in each case. The TGI in the assay on NCI-H226 lung is 35.4 µM; in the assay on NCI-H23 lung, greater than 100 µM; with HT29 colon, greater than 100 µM; in the assay on IGROV1 ovarian, greater than 100 µM; in the assay on A549 NSCLC, greater than 100 µM; in the assay on RPMI-8226 leukemia, greater than 100 µM. The TGI with M14 melanoma, in the assay with SK-MEL-2 melanoma and with HCT-15 colon was greater than 100 µM throughout.

Regarding `O=C1CS/C(=N/S(=O)(=O)c2ccc(N3N=C4c5ccccc5CC4C3c3cccs3)cc2)N1C(=O)c1ccccc1` (stereo not drawn), the GI50 in the assay with NCI-H226 lung is 58.5 µM; in the assay with NCI-H23 lung, 25.1 µM; with HT29 colon it was 76.1 µM; in the assay with IGROV1 ovarian it was 28.3 µM; in the assay with A549 NSCLC, 70.8 µM; in the assay on RPMI-8226 leukemia, 34 µM. In addition, the GI50 in the assay on M14 melanoma is 44.7 µM; with SK-MEL-2 melanoma, greater than 100 µM; in the assay with HCT-15 colon, 56.3 µM. Also, the TGI with NCI-H226 lung is greater than 100 µM; in the assay on NCI-H23 lung, 61.1 µM; in the assay on HT29 colon it was greater than 100 µM; with IGROV1 ovarian it was greater than 100 µM; with A549 NSCLC it was greater than 100 µM; in the assay with RPMI-8226 leukemia, greater than 100 µM. Also, the TGI in the assay on M14 melanoma, in the assay with SK-MEL-2 melanoma and in the assay with HCT-15 colon was greater than 100 µM each time.

As to `N#C/C(=C/N1CCN(C(=O)c2ccco2)C1=S)C(=O)Nc1ccc(Cl)cc1`, the GI50 in the assay with NCI-H23 lung is 12.3 µM; with HT29 colon it was 21.4 µM; with IGROV1 ovarian, 25.3 µM; in the assay with A549 NSCLC, 25.8 µM; in the assay on RPMI-8226 leukemia, 10.5 µM; in the assay on M14 melanoma, 14.2 µM. For the same compound, the results for the GI50 in the assay on K-562 leukemia, with SK-MEL-2 melanoma and in the assay with HCT-15 colon were 16.1 µM, 16.7 µM and 21.3 µM, respectively. Moreover, the TGI is 33.5 µM with NCI-H23 lung; greater than 50 µM with HT29 colon; greater than 50 µM with IGROV1 ovarian; greater than 50 µM in the assay with A549 NSCLC; 32.2 µM with RPMI-8226 leukemia; greater than 50 µM with M14 melanoma. Moreover, the TGI in the assay with K-562 leukemia is greater than 50 µM; with SK-MEL-2 melanoma it was 39.7 µM; in the assay with HCT-15 colon, greater than 50 µM.

Regarding `C1CSC[C@H]2COC[C@@H](CSCCS1)S2`, the TGI in the assay on NCI-H23 lung, in the assay with HT29 colon, with A549 NSCLC, in the assay on M14 melanoma, in the assay on K-562 leukemia and in the assay on HCT-15 colon was greater than 100 µM in each case.

On to `COc1cc(C2c3cc4c(cc3OC(O)C2C)OCO4)cc(OC)c1OC` (stereo not drawn), for which the TGI with NCI-H226 lung is 7.33 µM; in the assay on IGROV1 ovarian it was 51.1 µM; in the assay on RPMI-8226 leukemia it was 2.07 µM; in the assay with M14 melanoma, 30.2 µM; with K-562 leukemia, 41.1 µM; in the assay with SK-MEL-2 melanoma, 13.3 µM. Further, the TGI in the assay on HCT-15 colon was greater than 100 µM.

Regarding `COc1ccc2nc(C)cc(Sc3nc4ccccc4s3)c2c1`, the GI50 in the assay with NCI-H226 lung is 0.728 µM; in the assay on NCI-H23 lung, 1.78 µM; in the assay with HT29 colon, 1.89 µM; with IGROV1 ovarian, 2.2 µM; with A549 NSCLC it was 2.21 µM; in the assay with RPMI-8226 leukemia it was 0.362 µM. For the same compound, the results for the GI50 with M14 melanoma, in the assay with K-562 leukemia and with HCT-15 colon were 1.92 µM, 1.21 µM and 0.953 µM, respectively. Also, the TGI in the assay on NCI-H226 lung came to 4.1 µM; in the assay with NCI-H23 lung, 7.56 µM; with HT29 colon, 7.71 µM; in the assay on IGROV1 ovarian, 13.9 µM; in the assay with A549 NSCLC, 14.2 µM; in the assay with RPMI-8226 leukemia, 2.16 µM. Further, the TGI is 9.34 µM in the assay on M14 melanoma and 3.73 µM in the assay with HCT-15 colon.

The values are drawn from PubChem BioAssay (NCI).
